Assay results as given in PubChem BioAssay AID651973 (The Scripps Research Institute Molecular Screening Center, 2013).
Active and inactive are the calls of the source. No rule for the calls is given here.

Tested on: Cell-based VP16 transactivation luciferase reporter, luminescence
Assay: VP16 transactivation reporter inhibitors, dose response, counter-screen for LRH-1 inverse agonist project, cell-based, luminescence (AID 651973)

SMILES | IC50
Cc1c(Cl)cccc1NC(=O)CS(=O)(=O)c1ccccc1 | > 35.8 µM (inactive)
O=C(CSc1nc(=O)n2cc(Cl)ccc2n1)Nc1ccc2c(c1)OCCO2 | > 35.9 µM (inactive)
O=C(NC1CCCC(C(F)(F)F)C1)c1ccc([N+](=O)[O-])o1 (configuration not stated) | > 35.9 µM (inactive)
Cc1cc(OCC(=O)Nc2nccs2)c2c(C)cc(=O)oc2c1 | > 35.9 µM (inactive)
Cc1ccccc1OCC(=O)N/N=C/c1ccc([N+](=O)[O-])o1 | 29.8 µM (inactive)
CCc1cc(=O)oc2cc(C)cc(OCC(=O)NC3CC3)c12 | > 35.9 µM (inactive)
Cc1ccc(NC(=O)COC(=O)c2cc(=O)c3ccccc3o2)c(Br)c1 | > 35.9 µM (inactive)
COc1ccc(CCNC(=O)COC(=O)c2cc(Cl)nc(Cl)c2)cc1 | > 35.9 µM (inactive)
CC(=O)c1ccc(NC(=O)C(C)O/N=C(\N)c2ccccc2)cc1 (configuration not stated) | > 35.9 µM (inactive)
O=C(COC(=O)CCN1C(=O)C2CC=CCC2C1=O)NCCc1ccccc1 (configuration not stated) | > 35.9 µM (inactive)
O=C(Nc1ccccc1C(=O)Nc1nccs1)c1ccccc1 | 14.7 µM (inactive)
O=[N+]([O-])c1ccc(N2CCN(S(=O)(=O)c3ccccc3)CC2)cc1NCc1cccnc1 | > 35.9 µM (inactive)
CCOc1ccc(NC(=O)CSc2nncc(=O)n2N)cc1 | > 35.9 µM (inactive)
COc1cc([N+](=O)[O-])ccc1NC(=O)Cn1ccsc1=N | > 35.9 µM (inactive)
Cc1onc(-c2cccc(Cl)c2Cl)c1C(=O)O/N=C(\N)c1ccc([N+](=O)[O-])o1 | > 35.9 µM (inactive)
O=C(COc1ccc2c3c(c(=O)oc2c1)CCCC3)NCCCN1CCOCC1 | > 35.9 µM (inactive)
CN1CCN(c2ccc(S(=O)(=O)N3CCCCC3)cc2NC(=O)COc2ccc([N+](=O)[O-])cc2)CC1 | > 35.9 µM (inactive)
CC(=O)Nc1cc(-c2cccnc2)cn2c(-c3ccc(F)cc3)cnc12 | > 35.9 µM (inactive)
O=C(COC(=O)c1ccc(=O)n(Cc2ccccc2)n1)Nc1ccc2c(c1)OCCO2 | > 35.9 µM (inactive)
O=C(COc1ccc2c3c(c(=O)oc2c1)CCCC3)NCc1ccccn1 | > 35.9 µM (inactive)
O=C(COC(=O)c1ccc(Br)cc1)Nc1ccccc1Br | > 35.9 µM (inactive)
Cc1nn(CC(=O)Nc2ccc3c(c2)OCCO3)c(C)c1[N+](=O)[O-] | > 35.9 µM (inactive)
Cc1ccc(NC(=O)CSc2nc3[nH]c(=O)cc(O)c3s2)c(Br)c1 | > 35.9 µM (inactive)
COc1ccc(CCNC(=O)COC(=O)Cc2ccccc2[N+](=O)[O-])cc1 | > 35.9 µM (inactive)

SMILES | IC50
Cc1cc([N+](=O)[O-])ccc1NC(=O)CSc1nnc(C)n1C | > 35.8 µM (inactive)
COC(=O)c1ccc(COc2ccc(/C=N/NC(N)=S)cc2)o1 | > 35.9 µM (inactive)
O=C(NCC1CCCO1)c1ccc(NC(=O)c2cccc([N+](=O)[O-])c2)cc1 (configuration not stated) | > 35.9 µM (inactive)
O=C(COC(=O)CCN1C(=O)C2CC=CCC2C1=O)NCCc1ccc(F)cc1 (configuration not stated) | > 35.9 µM (inactive)
N=c1sccn1CC(=O)Nc1ccc(S(N)(=O)=O)cc1 | > 35.9 µM (inactive)
Cn1cc(Cl)c(C(=O)OCC(=O)Nc2ccc(S(N)(=O)=O)cc2)n1 | > 35.9 µM (inactive)
COc1cccc(-c2cnc3c(NC(C)=O)cc(-c4ccc(S(C)(=O)=O)cc4)cn23)c1 | > 35.9 µM (inactive)
O=C(CSc1nnc(CNC(=O)c2ccccc2F)o1)Nc1ccc2c(c1)OCCO2 | > 35.9 µM (inactive)
CC1CCC2(CC1)NC(=O)N(CC(=O)Nc1ccc3c(c1)OCCCO3)C2=O (configuration not stated) | > 35.9 µM (inactive)
CC1(C(=O)NCc2ccc3c(c2)OCO3)CCN1C(=O)Cc1ccc(Cl)cc1Cl (configuration not stated) | > 35.9 µM (inactive)
CC1CC(C)CN(c2cc(N(C)CCO)c([N+](=O)[O-])c3nonc23)C1 (configuration not stated) | > 35.9 µM (inactive)
COc1ccc(/C=N/NC(=O)c2ccc(NC(=O)c3cccc([N+](=O)[O-])c3)cc2)c(OC)c1 | > 35.9 µM (inactive)
COc1ccc(CCNC(=O)CN2C(=O)NC3(CCCCC3)C2=O)cc1 | > 35.9 µM (inactive)
Cc1cc(OCC(=O)N2CCC(O)CC2)c2c(C)cc(=O)oc2c1 | > 35.9 µM (inactive)
O=C(Nc1nc2c(Cl)cccc2s1)c1ccc([N+](=O)[O-])o1 | > 35.9 µM (inactive)
COC(=O)c1ccc(NC(=O)CSc2nncn2-c2cccnc2)cc1 | > 35.9 µM (inactive)
COc1ccccc1NC(=O)CN1CCN(CC(=O)Nc2ccc(S(N)(=O)=O)cc2)CC1 | 20.4 µM (inactive)
NS(=O)(=O)c1ccc(O)c(NC(=O)c2ccc([N+](=O)[O-])o2)c1 | > 35.9 µM (inactive)
COc1cccc(NC(=O)c2oc3ccccc3c2NC(=O)C2CC2)c1 | > 35.9 µM (inactive)
COCCn1c(C)cc(/C=C(\C#N)C(=O)OCC(=O)Nc2ccc(S(N)(=O)=O)cc2)c1C | > 35.9 µM (inactive)
CCOC(=O)c1cc2sccc2n1CC(=O)Nc1ccc2c(c1)OCCO2 | > 35.9 µM (inactive)
COC(=O)c1ccc(NC(=O)CN2CCN(c3ccc(Cl)cc3)CC2)cc1 | > 35.9 µM (inactive)
CC(=O)Nc1ccc(NC(=O)CSc2nnc(-c3cc4ccccc4o3)n2C)cc1 | > 35.9 µM (inactive)
